Data on 34 compounds can be found in patent US7060822B1, “2-pyrazolin-5-ones” (Abbott GmbH & Co. KG, priority 1999, dated 2006).

Molecules are shown by their SMILES.

The term melting point denotes the temperature of the solid-liquid transition. As to `Cc1[nH]c(C=C2C(=O)NN=C2c2cccnc2)c(C)c1CN(C)C` [Example 144, 4-[(3,5-Dimethyl-4-dimethylaminomethylpyrrol-2-yl)methylene]-3-(3-pyridyl)-2-pyrazolin-5-one], the melting point is 220 to 224 °C. The compound `O=C1NN=C(CCc2ccc(O)cc2)C1=Cc1cn(CCCCO)c2ncccc12` [Example 342, 4-{[1-(4-Hydroxybutyl)-7-azaindol-3-yl]methylene}-3-(4-hydroxyphenylethyl)-2-pyrazolin-5-one] returned a melting point of 211 to 212 °C.

For `CCN(CC)CCc1c(C)[nH]c(C=C2C(=O)NN=C2c2ccnnc2)c1C` [Example 209, 4-{[4-(2-Diethylaminoethyl)-3,5-dimethylpyrrol-2-yl]methylene}-3-(4-pyridazinyl)-2-pyrazolin-5-one], the melting point was in the range of 212 to 216 °C.

Take `Cc1ccc(CCC2=NNC(=O)C2=Cc2c[nH]c3ccccc23)cc1` [Example 236, 4-[(Indol-3-yl)methylene]-3-(4-methylphenylethyl)-2-pyrazolin-5-one]: the melting point fell in the range of 244 to 245 °C. To `O=C1NN=C(C2CCC2)C1=Cc1c[nH]c2ccccc12` [Example 259, 3-Cyclobutyl-4-[(indol-3-yl)methylene]-2-pyrazolin-5-one] belongs > 300 °C.

Take `CC(C)C1=NNC(=O)C1=Cc1c[nH]c2ncccc12` [Example 343, 4-[(7-Azaindol-3-yl)methylene]-3-isopropyl-2-pyrazolin-5-one]: the melting point was 300 °C (dec.). `CCOC1=NNC(=O)C1=Cc1c[nH]c2ccccc12` [Example 237, 3-Ethoxy-4-[(indol-3-yl)methylene]-2-pyrazolin-5-one] showed a melting point of 248 to 250 °C. To `COc1ccc(CC2=NNC(=O)C2=Cc2ccc[nH]2)cc1OC` [Example 22, 3-(3,4-Dimethoxybenzyl)-4-[(pyrrol-2-yl)methylene]-2-pyrazolin-5-one] belongs 164 to 165 °C. With `Cc1[nH]c(C=C2C(=O)NN=C2C2CC2)c(C)c1CN` [Example 132, 3-Cyclopropyl-4-[(4-aminomethyl-3,5-dimethylpyrrol-2-yl)methylene]-2-pyrazolin-5-one] the figure was 217 to 219 °C. As to `Cc1[nH]c(C=C2C(=O)NN=C2C2CC2)c(C(C)C)c1CN(C)C` [Example 200, 3-Cyclopropyl-4-[(dimethylaminomethyl-3-isopropyl-5-methylpyrrol-2-yl)methylene]-2-pyrazolin-5-one], the melting point is 190 to 192 °C. To `CCN(CC)Cc1c(C)[nH]c(C=C2C(=O)NN=C2c2cnccn2)c1C` [Example 166, 4-[(4-Diethylaminomethyl-3,5-dimethylpyrrol-2-yl)methylene]-3-pyrazinyl-2-pyrazolin-5-one] belongs 242 to 244 °C; to `CCOC(=O)C1=NNC(=O)C1=Cc1ccc[nH]1` [Example 104, 3-Ethoxycarbonyl-4-[(pyrrol-2-yl)methylene]-2-pyrazolin-5-one], 177 to 179 °C. Compound `Cc1cccc2c(C=C3C(=O)NN=C3OC(C)C)cn(C)c12` [Example 294, 4-[(1,7-Dimethylindol-3-yl)methylene]-3-isopropoxy-2-pyrazolin-5-one] displayed a melting point of 245 to 247 °C. With `Cn1cc(C=C2C(=O)NN=C2C(C)(C)C)c2ccccc21` [Example 303, 4-[(1-Methylindol-3-yl)methylene]-3-tert-butyl-2-pyrazolin-5-one] the figure was 201 to 203 °C; with `Cc1cc(C)c(C=C2C(=O)NN=C2OC(C)C)[nH]1` [Example 30, 4-[(3,5-Dimethylpyrrol-2-yl)methylene]-3-isopropoxy-2-pyrazolin-5-one], 176 to 177 °C.

Compound `O=C1NN=C(C2CC2)C1=Cc1c[nH]c2ncccc12` [Example 344, 4-[(7-Azaindol-3-yl)methylene]-3-cyclopropyl-2-pyrazolin-5-one] yielded a melting point of 245 to 246 °C. Compound `O=C1NN=C(COc2ccccc2)C1=Cc1ccc[nH]1` [Example 4, 3-Phenyloxymethyl-4-[(pyrrol-2-yl)methylene]-2-pyrazolin-5-one] showed a melting point of 163 to 165 °C. With `CCc1c(C)[nH]c(C=C2C(=O)NN=C2CCc2ccc(C(N)=O)cc2)c1C` [Example 47, 3-(4-Carbamoylphenylethyl)-4-[(3,5-dimethyl-4-ethylpyrrol-2-yl)methylene]-2-pyrazolin-5-one] the figure was 297 to 299 °C; with `CC(C)OC1=NNC(=O)C1=Cc1c[nH]c2ncccc12` [Example 336, 4-[(7-Azaindol-3-yl)methylene]-3-isopropoxy-2-pyrazolin-5-one], 258 to 260 °C. With `Cc1[nH]c(C=C2C(=O)NN=C2c2cnccn2)cc1CN(C)C` [Example 170, 4-[(5-Methyl-4-dimethylaminomethylpyrrol-2-yl)methylene]-3-pyrazinyl-2-pyrazolin-5-one], the melting point lay in the range of 193 to 195 °C. To `Cc1[nH]c(C=C2C(=O)NN=C2C2CC2)c(C)c1CN(C)C.O=C(O)/C=C\C(=O)O` [Example 174, 3-Cyclopropyl-4-[(3,5-dimethyl-4-dimethylaminomethylpyrrol-2-yl)methylene]-2-pyrazolin-5-one maleate] belongs 199 to 201 °C. The compound `O=C1NN=C(C2CC2)C1=Cc1cccn1-c1cc(Cl)cc(Cl)c1` [Example 59, 3-Cyclopropyl-4-[[1-(3,5-dichlorophenyl)pyrrol-2-yl)methylene]-2-pyrazolin-5-one] yielded a melting point of 188 to 190 °C. `Cc1cc(C)c(C=C2C(=O)NN=C2c2ccccn2)[nH]1` [Example 124, 4-[(3,5-Dimethylpyrrol-2-yl)methylene]-3-(2-pyridyl)-2-pyrazolin-5-one] showed a melting point of 228 to 230 °C.

For the compound `CN(C)C(=O)CCC1=NNC(=O)C1=Cc1c[nH]c2ccccc12` [Example 260, 3-(2-Dimethylaminocarbonylethyl)-4-[(indol-3-yl)methylene]-2-pyrazolin-5-one], the melting point lay within 258 to 260 °C. With `O=C1NN=C(OC2CCCC2)C1=Cc1ccc[nH]1` [Example 39, 3-Cyclopentyloxy-4-[(pyrrol-2-yl)methylene]-2-pyrazolin-5-one] the figure was 201 to 203 °C; with `CCOC(=O)c1c(C)[nH]c(C=C2C(=O)NN=C2CCc2ccc(N)cc2)c1C` [Example 50, 3-(4-Aminophenylethyl)-4-[(3,5-dimethyl-4-ethoxycarbonylpyrrol-2-yl)methylene]-2-pyrazolin-5-one], 186 to 188 °C. Take `Cc1ccc(CC2=NNC(=O)C2=Cc2c[nH]c3ncccc23)cc1` [Example 340, 4-[(7-Azaindol-3-yl)methylene]-3-(4-methylbenzyl)-2-pyrazolin-5-one]: the melting point was > 300 °C. To `CCCOC1=NNC(=O)C1=Cc1c[nH]c2ccccc12` [Example 241, 4-[(Indol-3-yl)methylene]-3-propoxy-2-pyrazolin-5-one] belongs 246 to 247 °C; to `Cn1cc(C=C2C(=O)NN=C2c2cnccn2)c2ccccc21` [Example 289, 4-[(1-Methylindol-3-yl)methylene]-3-pyrazinyl-2-pyrazolin-5-one], 263 to 265 °C; to `Cc1[nH]c(C=C2C(=O)NN=C2c2cnccn2)c(C(C)C)c1CN(C)C` [Example 199, 4-[(Dimethylaminomethyl-3-isopropyl-5-methylpyrrol-2-yl)methylene]-3-pyrazinyl-2-pyrazolin-5-one], 227 °C.

`CC(C)OC1=NNC(=O)C1=Cc1cc[nH]c1` [Example 369, 3-Isopropoxy-4-[(pyrrol-3-yl)methylene]-2-pyrazolin-5-one] returned a melting point of 252 to 255 °C. In turn, `O=C1NN=C(Cc2ccccc2)C1=Cc1ccc[nH]1` [Example 2, 3-Benzyl-4-[(pyrrol-2-yl)methylene]-2-pyrazolin-5-one] gave a melting point of 182 to 184 °C. With `Cc1cccc2c(C=C3C(=O)NN=C3C3CC3)c[nH]c12` [Example 274, 3-Cyclopropyl-4-[(7-methylindol-3-yl)methylene]-2-pyrazolin-5-one] the figure was 286 to 288 °C. With `Cc1[nH]c(C=C2C(=O)NN=C2c2ccco2)c(C)c1CN(C)C` [Example 142, 4-[(3,5-Dimethyl-4-dimethylaminomethylpyrrol-2-yl)methylene]-3-(2-furyl)-2-pyrazolin-5-one] the figure was 209 to 211 °C.
